Literature values, collected in patent US11400063B2, “Early administration of low-dose colchicine after myocardial infarction” (INSTITUT DE CARDIOLOGIE DE MONTREAL, priority 2019, dated 2022).

Columns and labels:
[1] = CIRT; cited from earlier work
[2] = test system: stable coronary disease; settings: CANTOS; cited from earlier work

## CN(Cc1cnc2nc(N)nc(N)c2n1)c1ccc(C(=O)N[C@@H](CCC(=O)O)C(=O)O)cc1 [methotrexate]
[1]
  cardiovascular outcomes or plasma markers of inflammation: did not affect

## canakinumab: injectable monoclonal antibody inhibiting interleukin-1β
[2]
  incidence of fatal infections: slightly higher incidence
  lower risk of cardiovascular events than with placebo: 15%
